Test results reported in paper PMC5219024, “New acetylenic derivatives of betulin and betulone, synthesis and cytotoxic activity” (Medicinal Chemistry Research, 2016).
≈ marks a conversion by molar mass, not a printed value. Like-named read-outs stand apart in the source and are kept apart here.

Experiments:
[1] = tested on: CCRF/CEM (human leukemia); experiment: Antiproliferative assay in vitro (MTT), CCRF/CEM; format: cell-based; details: read-out: Cytotoxic activity IC50, CCRF/CEM
Experimental: (§1) The tested cell lines were obtained from the American Type Culture Collection (Rockville, Maryland, USA) and maintained at the Cell Culture Collection of the Institute of Immunology and Experimental Therapy (Wrocław, Poland). The cells were seeded in 96-well plates (Sarstedt, USA) at a density of 10^4 cells per well in 100 µL of culture medium overnight. […] The normal mouse fibroblasts BALB3T3 was cultured in Dulbecco’s modified Eagle’s medium (Sigma-Aldrich, Chemie GmbH, Steinheim, Germany) supplemented with 2 mM glutamine (Sigma-Aldrich, Chemie GmbH, Steinheim, Germany) and 10 % fetal calf serum FBS (Sigma-Aldrich, Chemie GmbH, Steinheim, Germany). The all culture media were supplemented with streptomycin (100 µg/mL) and penicillin (100 U/mL) (both antibiotics from Polfa, Tarchomin, Poland). The cell cultures were maintained at 37 °C in humid atmosphere saturated with 5 % CO2. The MTT assay was used for the cytotoxicity screening against leukemia cells growing in suspension culture. This assay was performed after 96 h of the leukemia cells to varying concentrations (ranging from 1 to 100 µg/mL) of the tested substances. The derivatives of betulin were dissolved in 10 % DMSO to concentration of 1 mg/mL, and next diluted in culture medium to reach the required concentrations. […] During the last 3–4 h of incubation 20 µl of MTT solution were added to each well (MTT: 3-(4,5-dimethylthiazol-2-yl)-2,5-diphenyl tetrazolium bromide; stock solution: 5 mg/mL). The pale yellow MTT is reduced to a navy blue formazan in the mitochondria of living cells. At the end of incubation time, 80 µL of the lysing mixture was added to each well (lysing mixture: 225 mL dimethylformamide, 67.5 g sodium dodecyl sulfate and 275 mL of distilled water). After 24 h are formed the crystals of formazan, which are insoluble in aqueous solutions. The formazan crystals had been dissolved. The optical densities were read on a Multiskan RC photometer at 570 nm wavelength. The compounds in given concentration were examined in triplicates in each experiment which was repeated 3–5 times. The results of cytotoxic activity in vitro were expressed as an IC50 in µg/mL.

[2] = tested on: T47D (human breast cancer); experiment: Antiproliferative assay in vitro (SRB), T47D; format: cell-based; details: read-out: Cytotoxic activity IC50, T47D
Experimental: (§2) The tested cell lines were obtained from the American Type Culture Collection (Rockville, Maryland, USA) and maintained at the Cell Culture Collection of the Institute of Immunology and Experimental Therapy (Wrocław, Poland). The cells were seeded in 96-well plates (Sarstedt, USA) at a density of 10^4 cells per well in 100 µL of culture medium overnight. […] The normal mouse fibroblasts BALB3T3 was cultured in Dulbecco’s modified Eagle’s medium (Sigma-Aldrich, Chemie GmbH, Steinheim, Germany) supplemented with 2 mM glutamine (Sigma-Aldrich, Chemie GmbH, Steinheim, Germany) and 10 % fetal calf serum FBS (Sigma-Aldrich, Chemie GmbH, Steinheim, Germany). The all culture media were supplemented with streptomycin (100 µg/mL) and penicillin (100 U/mL) (both antibiotics from Polfa, Tarchomin, Poland). The cell cultures were maintained at 37 °C in humid atmosphere saturated with 5 % CO2. This technique as first was described by Skehan et al. in [1990]. The SRB assay was performed after 96 h exposure of the cultured cells to varying concentrations (ranging from 1 to 100 µg/mL) of the tested substances. The reported derivatives as well as betulin 1 were dissolved in 10 % dimethyl sulfoxide (DMSO) to concentration of 1 mg/mL, and next diluted in culture medium to reach the required concentrations. […] The cells fastened to the plastic were fixed mildly layering cold 50 % TCA (trichloroacetic acid, Aldrich-Chemie, Germany) on the top of the culture medium in each well. The plates were incubated at 4 °C for 1 h and then washed five times with tap water. The cells fixed with TCA were stained with 0.4 % sulforhodamine B (SRB, Sigma, Germany) dissolved in 1 % acetic acid (POCH, Gliwice, Poland) for 30 min. The unbound dye was removed by rinsing four times with 1 % acetic acid. The protein-bound dye was extracted with 10 mM unbuffered tris base (POCH, Gliwice, Poland) and then determined the optical density at 540 nm in a computer-interfaced, 96-well microtiter plate reader Multiscan RC photometer (Labsystems, Helsinki, Finland). The compounds in given concentration were examined in triplicates in each experiment which was repeated 3–5 times. The results of cytotoxic activity in vitro were expressed as an IC50 in µg/mL.

[3] = tested on: HL-60 (human promyelocytic leukemia); experiment: Antiproliferative assay in vitro (MTT), HL-60; format: cell-based; details: Homo sapiens, read-out: Cytotoxic activity IC50, HL-60
Experimental: as §1

[4] = Antiproliferative assay in vitro (SRB), BALB3T3; format: cell-based, mouse; details: mouse; murine BALB3T3 normal fibroblasts; 96 h exposure; 1 to 100 µg/mL; Neg = negative in the concentration used; read-out: Cytotoxic activity IC50, BALB3T3
Experimental: as §2

SW707 (human colorectal) [5] = experiment: Antiproliferative assay in vitro (SRB), SW707; format: cell-based; details: for IC50: read-out: Cytotoxic activity IC50, SW707
Experimental: as §2

P388 (mouse leukemia) [6] = experiment: Antiproliferative assay in vitro (MTT), P388; format: cell-based; details: Mus musculus; murine P388; 96 h exposure; 1 to 100 µg/mL; Neg = negative in the concentration used; read-out: Cytotoxic activity IC50, P388
Experimental: as §1

[7] = tested on: BALB3T3 normal mouse fibroblasts; experiment: Antiproliferative assay in vitro (SRB), BALB3T3; format: cell-based; details: murine BALB3T3 normal fibroblasts; 96 h exposure; 1 to 100 µg/mL; Neg = negative in the concentration used
Experimental: as §2

SW707 (human colorectal) [8] = tested on: SW707 (human colorectal); set-up: method as in Boryczka et al. ([2013a], [b]); details: Neg = negative in the concentration used, ref Boryczka et al. ([2013a], [b]); cited from earlier work
[9] = tested on: CCRF/CEM (human leukemia); set-up: method as in Boryczka et al. ([2013a], [b]); details: Neg = negative in the concentration used, ref Boryczka et al. ([2013a], [b]); cited from earlier work
[10] = tested on: T47D (human breast cancer); set-up: method as in Boryczka et al. ([2013a], [b]); details: Neg = negative in the concentration used, ref Boryczka et al. ([2013a], [b]); cited from earlier work
[11] = tested on: BALB3T3 normal mouse fibroblasts; set-up: method as in Boryczka et al. ([2013a], [b]); details: murine BALB3T3 normal fibroblasts; Neg = negative in the concentration used; ref Boryczka et al. ([2013a], [b]); cited from earlier work
P388 (mouse leukemia) [12] = tested on: P388 (mouse leukemia); set-up: method as in Boryczka et al. ([2013a], [b]); details: murine P388; Neg = negative in the concentration used; ref Boryczka et al. ([2013a], [b]); cited from earlier work
[13] = human CCRF/CEM, 96 h exposure, 1 to 100 µg/mL, Neg = negative in the concentration used
[14] = human T47D, 96 h exposure, 1 to 100 µg/mL, Neg = negative in the concentration used
[15] = HL-60 cancer cell line, 96 h exposure
[16] = human SW707, 96 h exposure, 1 to 100 µg/mL, Neg = negative in the concentration used

SMILES | IC50 at 96 h [4] | IC50 (P388 (mouse leukemia) [6]) | IC50 [1, 13] | melting point | IC50 [2, 14] | IC50 [3, 15] | IC50 (SW707 (human colorectal) [5]; [16]) | also measured
C=C(C)[C@@H]1CC[C@]2(CO)CC[C@]3(C)[C@H](CC[C@@H]4[C@@]5(C)CC[C@H](O)C(C)(C)[C@@H]5CC[C@]43C)[C@@H]12 [Betulin 1, lup-20(29)-ene-3β,28-diol, reference compound] | 47.3 ± 7.9 µg/mL (≈ 107 µM) | – | – | – | – | – | – | IC50 ([1]; Homo sapiens, CCRF-CEM, 96 h): 10.9 ± 5.5 µg/mL (≈ 24.6 µM); IC50 ([2]; Homo sapiens, T47D, 96 h): 32.4 ± 10.7 µg/mL (≈ 73.2 µM); IC50 ([3]; HL-60, 96 h): 7.2 ± 0.5 µg/mL (≈ 16.3 µM); IC50 (SW707 (human colorectal) [5]; Homo sapiens, SW707, 96 h): 22.9 ± 15.4 µg/mL (≈ 51.7 µM)
C=C(C)[C@@H]1CC[C@]2(COC(=O)C#CC3CC3)CC[C@]3(C)C(CCC4[C@@]5(C)CC[C@H](O)C(C)(C)C5CC[C@]43C)C12 (stereo partly shown) [Compound 6, 28-O-(3-Cyclopropyl-2-propynoyl)betulin] | – | 8.4 ± 9.2 µg/mL (≈ 15.7 µM) | 16.5 ± 8.5 µg/mL (≈ 30.9 µM) | 108 to 113 °C | 33.6 ± 6.3 µg/mL (≈ 62.8 µM) | 44.8 ± 10.9 µg/mL (≈ 83.8 µM) | – | Cytotoxic activity IC50, BALB3T3 [7]: Neg; Cytotoxic activity IC50, SW707 (SW707 (human colorectal) [5]; [16]): Neg
C=C(C)[C@@H]1CC[C@]2(COC(=O)C#Cc3ccccc3)CC[C@]3(C)C(CCC4[C@@]5(C)CC[C@H](O)C(C)(C)C5CC[C@]43C)C12 (stereo partly shown) [Compound 7] | – | – | – | – | – | – | – | Cytotoxic activity IC50, SW707 (SW707 (human colorectal) [8]): Neg; Cytotoxic activity IC50, CCRF/CEM [9]: 49.0 ± 9.8 µg/mL; Cytotoxic activity IC50, T47D [10]: Neg; Cytotoxic activity IC50, BALB3T3 [11]: Neg; Cytotoxic activity IC50, P388 (P388 (mouse leukemia) [12]): Neg
C=CC(=O)OC[C@]12CC[C@@H](C(=C)C)C1C1CCC3[C@@]4(C)CC[C@H](O)C(C)(C)C4CC[C@@]3(C)[C@]1(C)CC2 (stereo partly shown) [Compound 4, 28-O-(2-Propenoyl)betulin] | 24.3 ± 6.9 µg/mL (≈ 48.9 µM) | 9.9 ± 5.9 µg/mL (≈ 19.9 µM) | 19.6 ± 9.5 µg/mL (≈ 39.5 µM) | 117 to 121 °C | 7.1 ± 2.7 µg/mL (≈ 14.3 µM) | 18.8 ± 4.8 µg/mL (≈ 37.8 µM) | 29.6 ± 4.2 µg/mL (≈ 59.6 µM) | –
C=C(C)[C@@H]1CC[C@]2(COC(=O)C#CC)CC[C@]3(C)C(CCC4[C@@]5(C)CC[C@H](O)C(C)(C)C5CC[C@]43C)C12 (stereo partly shown) [Compound 9, 28-O-(2-Butynoyl)betulin] | 17.4 ± 1.1 µg/mL (≈ 34.2 µM) | 2.9 ± 1.4 µg/mL (≈ 5.7 µM) | 2.1 ± 0.3 µg/mL (≈ 4.13 µM) | 111 to 113 °C | 16.7 ± 5.5 µg/mL (≈ 32.8 µM) | 24.5 ± 1.9 µg/mL (≈ 48.2 µM) | 24.3 ± 8.8 µg/mL (≈ 47.8 µM) | –
